Experimental data taken from patent US20260000710A1, “Novel Treatments for Cardiovascular Related Disease” (priority 2022, published 2026).

What was measured:
[1] = system: AIM+ and AIM− CD4+ T cells from peptide-expanded PBMCs; assay: TCRβ CDR3 sequencing (immunoSEQ) of sorted AIM+ and AIM− CD4+ T cells; assay type: cell-based, human; details: Donor 4;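 further: genomic DNA from sorted cells as template, amplification bias-controlled two-step multiplex PCR, APOB6 pool at 10 µg/ml per peptide, CD40 blocking antibody added before restimulation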
Method: To examine the clonotypic identities of autoreactive CD4^+ T cells, the hypervariable TCRβ DR3 region was sequenced using a DNA-based sequencing technique^42 (Adaptive Biotechnologies), which have been used to profile clonal populations of other self-antigen specific T cells^43. PBMCs from six HLA-typed donors (demographics and HLA-II alleles in Tables 5, 6) were expanded (14-days) and restimulated (24 h) with the APOB6 pool. To isolate viable responder and non-responder CD4^+ T cells from the same pool of stimulated PBMCs (schematic in FIG. 15A, gating strategy in FIG. 151B), the inventors used the AIM assay protocol (FIGS. 2A to 2D).
As a second control, unexpanded PBMCs (day 0 samples), sorted into naïve, central memory (TCM) and effector memory (TEM) CD4^+ T cells, were used (gating strategy in FIG. 15C). This allowed tracing the APOB6-specific AIM^+ T cell clones in naïve and memory T cell lineages. Genomic DNA, isolated from sorted AIM^− and AIM^+ Day 14 samples and naïve, TCM and TEM Day 0 samples from six donors, was used as the starting material for TCRVβ sequencing (schematic in FIG. 15A) using an optimized two-step, amplification bias-controlled multiplex-PCR-based approach^42,44 (immunoSEQ Human TCRB Assay, Adaptive Biotechnologies).
For isolation of APOB epitope-specific CD4^+ T cells, PBMCs were expanded with the APOB6pool (10 μg/ml per peptide). On Day 14, cultured cells were washed and re-stimulated with APOB6 (10 μg/ml) for 24 h (AIM assay protocol). 1 μg/ml of CD40 blocking antibody was added 15 min before stimulation. At the end of the stimulation period, cells were washed with FACS buffer (PBS w/o Ca/Mg, 2% FCS). Day 14 (APOB6 expanded and restimulated) and Day 0 (ex vivo samples with no in vitro stimulation) PBMC samples from six donors were resuspended in a staining master mix containing anti-human Fc-Block (Biolegend), fixable viability dye and antibodies against T cell and non-T cell (Dump) surface markers, activation markers and memory markers (antibody details in Table 4). Viability dye was used at 1:1000 dilution, antibodies were used at a final dilution of 1:100 (activation markers) and 1:200 (other extracellular markers). […] Gates were set based on unstimulated and PHA-L stimulated negative and positive controls, respectively. Antigen-specific AIM^+ and non-specific control AIM^− CD4^+ T cells from Day 14 samples and naïve (CD45RA^+CCR7^+), central memory (CD45RA^−CCR7^+, TCM) and effector memory (CD45RA^−CCR7^−, TEM) CD4^+ T cells from Day 0 PBMCs were sorted into HEPES-containing buffer (PBS with 2% FBS and 0.025 M HEPES) using BD FACSAria flow cytometry sorters. Acquired data was analyzed with FlowJo software.
Genomic DNA was extracted from sorted cells using QIAamp DNA Micro Kit (QIAGEN) and sent to Adaptive Biotechnologies for survey-level TCRβ sequencing (depth ˜60,000 reads) using their established immunoSEQ platform^7. Briefly, highly variable CDR3 regions on somatically rearranged human TCRβ chains were amplified with a two-step multiplex PCR approach using optimized set of primers that target the VDJ region spanning each unique CDR3B. A synthetic repertoire containing all possible V/J templates is used as a built-in control to quantify and correct PCR amplification biases. Processing of raw Illumina sequence reads, filtering, demultiplexing, clustering and mapping of CDR3 sequences and annotation of VDJ genes using IMGT database sequences were performed at Adaptive Biotechnologies and made available for download and analysis.

[2] = system: purified MHC molecules (28 common HLA DP, DQ and DR alleles); assay: HLA class II competition binding assay (inhibition of radiolabeled ligand binding); parameters: species or system human; details: alleles bound at <1000 nM threshold
Method: Peptides predicted to bind most (≥75%) of the alleles, were experimentally verified in HLA-II binding assays^31. For each peptide, the number of alleles that bound at a <1000 nM threshold level was tabulated. Top 20 promiscuous binders (bind >50% of reference alleles) were selected for further study (FIG. 9A, Table 2).
Next, the capacity of these peptides to bind 28 common HLA alleles (27 from the reference set plus DPB1*03:01) was determined experimentally using classical competition assays based on the inhibition of binding of high affinity radiolabeled ligands to purified MHC molecules^3. Under the conditions utilized, where [radiolabeled peptide] is <[MHC], and [MHC]<[inhibitor peptide], the measured IC50 values, defined as the concentrations of inhibitor peptide that inhibits the binding of the radiolabeled ligand by 50%, are reasonable estimates of true Kd values.

[3] = molecular target: 28 common HLA alleles (27 from the reference set plus DPB1*03:01), purified MHC molecules; assay: competition assay, inhibition of radiolabeled ligand binding to purified HLA class II; bound = IC50 <1000 nM
[4] = PBMCs expanded 14 days and restimulated 24 h with APOB6

| No. of HLA-II alleles bound [2] | Molecule | further results |
| --- | --- | --- |
|  | CSVLQHEQYF: TCRβ CDR3 clone, TCRBV29-01+TCRBJ02-07, Donor 4 | Log10 Odds Ratio ([1]; AIM+ vs AIM−): 0.49; No. of clone-specific productive templates, AIM+ CD4+ T (Total 25796) [1, 4]: 466; No. of clone-specific productive templates, AIM− CD4+ T (Total 25928) [1, 4]: 153 |
| 23 | DKRLAAYLMLMRSPS [Peptide 1] |  |
| 24 | FLHYIFMENAFELPT [Peptide 3] |  |
| 23 | GKIDFLNNYALFLSP [Peptide 14] |  |
| 22 | HFSNVFRSVMAPFTM [Peptide 7] |  |
| 21 | HVKHFVINLIGDFEV [Peptide 10] |  |
| 20 | IKHIYAISSAALSAS [Peptide 6] |  |
| 17 | ILFSYFQDLVITLPF [Peptide 17] |  |
| 19 | KFTYLINYIQDEINT [Peptide 18] |  |
| 20 | KIVSLIKNLLVALKD [Peptide 20] |  |
| 18 | LEVLNFDFQANAQLS [Peptide 12] |  |
| 17 | LIINWLQEALSSASL [Peptide 11] |  |
| 17 | LSQLQTYMIQFDQYI [Peptide 9] |  |
| 25 | QIHQYIMALREEYFD [Peptide 19] |  |
| 27 | QLYSKFLLKAEPLAF [Peptide 8] |  |
| 23 | RGLKLATALSLSNKF [Peptide 15] |  |
| 23 | SLFFSAQPFEITAST [Peptide 13] |  |
| 18 | VEFVTNMGIIIPDFA [Peptide 4] |  |
| 21 | VGSKLIVAMSSWLQK [Peptide 5] |  |
| 21 | YKKLRTSSFALNLPT [Peptide 16] |  |
|  | DKRLAAYLMLMRSPS [APOB peptide 1 (…)] | No. of HLA-II alleles bound [3]: 23 alleles |
|  | LIINWLQEALSSASL [APOB peptide 11 (…)] | No. of HLA-II alleles bound [3]: 17 alleles |
|  | LEVLNFDFQANAQLS [APOB peptide 12 (…)] | No. of HLA-II alleles bound [3]: 18 alleles |
|  | SLFFSAQPFEITAST [APOB peptide 13 (…)] | No. of HLA-II alleles bound [3]: 23 alleles |
|  | HVKHFVINLIGDFEV [APOB peptide 10 (…)] | No. of HLA-II alleles bound [3]: 21 alleles |
|  | YKKLRTSSFALNLPT [APOB peptide 16 (…)] | No. of HLA-II alleles bound [3]: 21 alleles |
|  | GKIDFLNNYALFLSP [APOB peptide 14 (…)] | No. of HLA-II alleles bound [3]: 23 alleles |
